Laboratory results from ChEMBL document CHEMBL3259683, “Carbonic anhydrase inhibitors. Inhibition of human cytosolic isoforms I and II with (reduced) Schiff's bases incorporating sulfonamide, carboxylate and carboxymethyl moieties” (Bioorg Med Chem, 2014).

Tests used:
Carbonic anhydrase 1 = Carbonic anhydrase 1 (Homo sapiens, UniProt P00915); test: Inhibition of human carbonic anhydrase 1-catalyzed CO2 hydration preincubated for 10 mins by stopped-flow assay
[1] = Solubility of the compound in water; format: physicochemical; conditions: buffer
Homo sapiens = organism: Homo sapiens; test: Selectivity ratio of Ki for human carbonic anhydrase 2 to Ki for human carbonic anhydrase 1
Carbonic anhydrase 2 = Carbonic anhydrase 2 (Homo sapiens, UniProt P00918); test: Inhibition of human carbonic anhydrase 2-catalyzed CO2 hydration preincubated for 10 mins by stopped-flow assay

Chain of Carbonic anhydrase 1 (P00915 whole entry): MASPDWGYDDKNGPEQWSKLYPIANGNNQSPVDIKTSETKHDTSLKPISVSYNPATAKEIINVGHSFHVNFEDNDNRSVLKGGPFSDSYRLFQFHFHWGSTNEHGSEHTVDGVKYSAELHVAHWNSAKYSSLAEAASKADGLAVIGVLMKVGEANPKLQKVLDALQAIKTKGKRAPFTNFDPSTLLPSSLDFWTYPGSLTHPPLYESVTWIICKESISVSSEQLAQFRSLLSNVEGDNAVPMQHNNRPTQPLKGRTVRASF

| Ki (Carbonic anhydrase 1) | solubility [1] | Ratio Ki (Homo sapiens) | Ki (Carbonic anhydrase 2) | SMILES |
| --- | --- | --- | --- | --- |
| 1290 nM | soluble |  |  | COc1ccc(O)c(/C=N/c2ccc(C(=O)O)cc2)c1 |
| 228 nM | soluble | 23 |  | COC(=O)c1ccc(NCc2cc(OC)ccc2O)cc1 |
| 50.3 nM | soluble |  | 8.6 nM | CC(C)(C)c1ccc(CNCCc2ccc(S(N)(=O)=O)cc2)cc1 |
| 70 nM | soluble |  | 12.6 nM | COc1ccc(O)c(/C=N/CCc2ccc(S(N)(=O)=O)cc2)c1 |
| 209 nM | soluble |  |  | COC(=O)c1ccc(NCc2ccc(O)cc2)cc1 |
| 7460 nM | soluble |  |  | COC(=O)c1ccc(/N=C/c2ccc(C(C)(C)C)cc2)cc1 |
| 311 nM | soluble |  |  | NS(=O)(=O)c1ccc(/N=C/c2ccccc2)cc1 |
| 18.7 nM | soluble |  |  | CC(C)(C)c1ccc(CNc2ccc(S(N)(=O)=O)cc2)cc1 |
|  | soluble |  |  | NS(=O)(=O)c1ccc(CCNCc2ccccc2)cc1 |
| 1040 nM | soluble |  |  | COC(=O)c1ccc(/N=C/c2ccc(O)cc2)cc1 |
| 56 nM | soluble |  | 51.5 nM | COc1ccc(O)c(CNCCc2ccc(S(N)(=O)=O)cc2)c1 |
| 8270 nM | soluble |  |  | CC(C)(C)c1ccc(/C=N/c2ccc(C(=O)O)cc2)cc1 |
| 105 nM | soluble |  | 43 nM | NS(=O)(=O)c1ccc(CC/N=C/c2ccc(O)cc2)cc1 |
| 200 nM | soluble | 111 |  | COC(=O)c1ccc(NCc2ccccc2)cc1 |
| 665 nM | soluble |  | 11.2 nM | CC(C)(C)c1ccc(/C=N/CCc2ccc(S(N)(=O)=O)cc2)cc1 |
| 189 nM | soluble |  |  | COc1ccc(O)c(CNc2ccc(C(=O)O)cc2)c1 |
| 251 nM | soluble |  |  | COC(=O)c1ccc(NCc2ccc(C(C)(C)C)cc2)cc1 |
|  | soluble |  |  | O=C(O)c1ccc(/N=C/c2ccc(O)cc2)cc1 |
| 80 nM | soluble |  | 11.1 nM | NS(=O)(=O)c1ccc(/N=C/c2ccc(O)cc2)cc1 |

| Ki (Carbonic anhydrase 1) | solubility [1] | Ratio Ki (Homo sapiens) | Ki (Carbonic anhydrase 2) | SMILES |
| --- | --- | --- | --- | --- |
| 266 nM | soluble |  |  | CC(C)(C)c1ccc(CNc2ccc(C(=O)O)cc2)cc1 |
| 92 nM | soluble |  |  | COc1ccc(O)c(/C=N/Cc2ccc(S(N)(=O)=O)cc2)c1.Cl |
| 116 nM | soluble |  |  | O=C(O)c1ccc(NCc2ccc(O)cc2)cc1 |
| 30.3 nM | soluble |  |  | Cl.NS(=O)(=O)c1ccc(CNCc2ccccc2)cc1 |
| 7450 nM | soluble |  |  | COC(=O)c1ccc(/N=C/c2cc(OC)ccc2O)cc1 |
| 92.1 nM | soluble |  | 236 nM | NS(=O)(=O)c1ccc(CCNCc2ccc(O)cc2)cc1 |
| 85 nM | soluble |  |  | CC(C)(C)c1ccc(/C=N/c2ccc(S(N)(=O)=O)cc2)cc1 |
| 25.5 nM | soluble |  |  | CC(C)(C)c1ccc(CNCc2ccc(S(N)(=O)=O)cc2)cc1.Cl |
| 1230 nM | soluble |  |  | O=C(O)c1ccc(/N=C/c2ccccc2)cc1 |
| 93 nM | soluble |  |  | Cl.NS(=O)(=O)c1ccc(C/N=C/c2ccccc2)cc1 |
| 23.5 nM | soluble |  |  | COc1ccc(O)c(CNc2ccc(S(N)(=O)=O)cc2)c1 |
| 72 nM | soluble |  |  | CC(C)(C)c1ccc(/C=N/Cc2ccc(S(N)(=O)=O)cc2)cc1.Cl |
|  | soluble |  |  | NS(=O)(=O)c1ccc(CC/N=C/c2ccccc2)cc1 |
| 8600 nM | soluble |  |  | COC(=O)c1ccc(/N=C/c2ccccc2)cc1 |
| 29 nM | soluble |  | 702 nM | NS(=O)(=O)c1ccc(NCc2ccc(O)cc2)cc1 |
| 59.5 nM | soluble |  |  | Cl.NS(=O)(=O)c1ccc(CNCc2ccc(O)cc2)cc1 |
| 56.7 nM | soluble |  |  | O=C(O)c1ccc(NCc2ccccc2)cc1 |
| 52 nM | soluble |  |  | COc1ccc(O)c(/C=N/c2ccc(S(N)(=O)=O)cc2)c1 |
| 51.9 nM | soluble |  |  | COc1ccc(O)c(CNCc2ccc(S(N)(=O)=O)cc2)c1.Cl |
